Measurements taken from ChEMBL document CHEMBL1139654, “Antiangiogenic activity of deoxoartemisinin derivatives on chorioallantoic membrane” (Bioorg Med Chem Lett, 2006).

Species: Gallus gallus
Experiment: Antiangiogenic activity at chorioallantoic membrane of chick embryo at 5 nmol per egg
Type: functional, organism-based
For `C[C@@H]1CC[C@H]2[C@@H](CO)CO[C@@H]3O[C@]4(C)CC[C@@H]1[C@]32OO4`, the inhibition was 29%. `C[C@@H]1CC[C@H]2[C@@H](COC[C@H]3CO[C@@H]4O[C@]5(C)CC[C@H]6[C@H](C)CC[C@@H]3[C@@]46OO5)CO[C@@H]3OC4(C)CC[C@@H]1[C@]32OO4` (single isomer, unassigned) was tested, and the inhibition was 71%. With `C[C@H]1[C@@H](CCCC(=O)O)O[C@@H]2O[C@]3(C)CC[C@H]4[C@H](C)CC[C@@H]1[C@@]24OO3` the inhibition was 50%. `CCCC[C@H]1O[C@@H]2O[C@]3(C)CC[C@H]4[C@H](C)CC[C@@H]([C@H]1C)[C@@]24OO3` gave an inhibition of 63%. `C[C@H]1[C@@H](CCO)O[C@@H]2O[C@]3(C)CC[C@H]4[C@H](C)CC[C@@H]1[C@@]24OO3` gave an inhibition of 63%. With `C[C@H]1[C@@H](CCN)O[C@@H]2O[C@]3(C)CC[C@H]4[C@H](C)CC[C@@H]1[C@@]24OO3` the inhibition was 29%. `C[C@H]1[C@@H](CCc2ccc(C(=O)O)cc2)O[C@@H]2O[C@]3(C)CC[C@H]4[C@H](C)CC[C@@H]1[C@@]24OO3` was tested, and the inhibition was 29%. `C[C@H]1[C@@H](CCBr)O[C@@H]2O[C@]3(C)CC[C@H]4[C@H](C)CC[C@@H]1[C@@]24OO3` showed an inhibition of 29%. `C[C@H]1[C@@H](CC[S+]([O-])CC[C@H]2O[C@@H]3O[C@]4(C)CC[C@H]5[C@H](C)CC[C@@H]([C@H]2C)[C@@]35OO4)O[C@@H]2O[C@@]3(C)CC[C@H]4[C@H](C)CC[C@@H]1[C@@]24OO3` was tested, and the Activity was “Toxic”. `O=C1CC[C@H](N2C(=O)c3ccccc3C2=O)C(=O)N1` was tested, and the inhibition was 50%. In the case of `C[C@@H]1CC[C@H]2[C@@H](C)C(=O)O[C@@H]3O[C@@]4(C)CC[C@@H]1[C@]32OO4`, the inhibition is reported as 25%. Work on `CCS[C@H]1O[C@@H]2O[C@]3(C)CC[C@H]4[C@H](C)CC[C@@H]([C@H]1C)[C@@]24OO3` yielded an inhibition of 17%. `CO[C@@H]1[C@H](OC(=O)/C=C/C=C/C=C/C=C/C(=O)O)CC[C@]2(CO2)[C@H]1[C@@]1(C)O[C@@H]1CC=C(C)C` was tested, and the inhibition was 57%. `C[C@@H]1CC[C@H]2[C@H](CBr)CO[C@@H]3O[C@]4(C)CC[C@@H]1[C@]32OO4` showed an inhibition of 75%. For `C[C@H]1[C@@H](CCS(=O)(=O)CC[C@H]2O[C@@H]3O[C@]4(C)CC[C@H]5[C@H](C)CC[C@@H]([C@H]2C)[C@@]35OO4)O[C@@H]2O[C@@]3(C)CC[C@H]4[C@H](C)CC[C@@H]1[C@@]24OO3`, the Activity was “Toxic”. For `C[C@H]1[C@@H](CCCOC(=O)CC(=O)OCCC[C@H]2O[C@@H]3O[C@]4(C)CC[C@H]5[C@H](C)CC[C@@H]([C@H]2C)[C@@]35OO4)O[C@@H]2O[C@]3(C)CC[C@H]4[C@H](C)CC[C@@H]1[C@@]24OO3`, the inhibition was 14%. Work on `C[C@@H]1CC[C@H]2[C@@H](C)CO[C@@H]3O[C@]4(C)CC[C@@H]1[C@]32OO4` yielded an inhibition of 29%. Work on `C=C1CO[C@@H]2O[C@]3(C)CC[C@H]4[C@H](C)CC[C@@H]1[C@@]24OO3` yielded an inhibition of 29%. Molecule `C[C@H]1[C@@H](CCNC(=O)CC[C@H]2O[C@@H]3O[C@]4(C)CC[C@H]5[C@H](C)CC[C@@H]([C@H]2C)[C@@]35OO4)O[C@@H]2O[C@]3(C)CC[C@H]4[C@H](C)CC[C@@H]1[C@@]24OO3` has an inhibition of 43%. `C[C@H]1[C@@H](O)O[C@@H]2O[C@@]3(C)CC[C@H]4[C@H](C)CC[C@@H]1[C@@]24OO3` showed an inhibition of 25%. In the case of `CCO[C@H]1O[C@@H]2O[C@@]3(C)CC[C@H]4[C@H](C)CC[C@@H]([C@H]1C)[C@@]24OO3`, the inhibition is reported as 29%. Molecule `C[C@@H]1CC[C@H]2[C@@H](C(=O)O)CO[C@@H]3O[C@]4(C)CC[C@@H]1[C@]32OO4` has an inhibition of 20%.
